Experiment [1] deals with T1, Human PDGFRα, cytoplasmic domain (GST-PDGFRα) (Homo sapiens, UniProt P16234).
T1 construct: made in house
The experiment can be described thus: Human PDGFRα biochemical inhibition assay (off-chip Mobility Shift Assay).

The target of experiment [2] is T2, Human PDGFRβ, cytoplasmic domain (GST-PDGFRβ) (Homo sapiens, UniProt P09619).
T2 construct: made in house
The experiment can be described thus: Human PDGFRβ biochemical inhibition assay (off-chip Mobility Shift Assay). In short, it runs like this: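 GST-tagged cytoplasmic domain (aa 557-1106) from baculovirus was incubated 1 h at room temperature with compound, CSKtide, ATP at Km and Mg²⁺ in HEPES buffer, pH 7.5. Phosphorylated and unphosphorylated peptide were separated by off-chip mobility shift, and the product ratio P/(P+S) gave percent inhibition.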

T2 sequence (P09619 with tags, fused parts or gaps): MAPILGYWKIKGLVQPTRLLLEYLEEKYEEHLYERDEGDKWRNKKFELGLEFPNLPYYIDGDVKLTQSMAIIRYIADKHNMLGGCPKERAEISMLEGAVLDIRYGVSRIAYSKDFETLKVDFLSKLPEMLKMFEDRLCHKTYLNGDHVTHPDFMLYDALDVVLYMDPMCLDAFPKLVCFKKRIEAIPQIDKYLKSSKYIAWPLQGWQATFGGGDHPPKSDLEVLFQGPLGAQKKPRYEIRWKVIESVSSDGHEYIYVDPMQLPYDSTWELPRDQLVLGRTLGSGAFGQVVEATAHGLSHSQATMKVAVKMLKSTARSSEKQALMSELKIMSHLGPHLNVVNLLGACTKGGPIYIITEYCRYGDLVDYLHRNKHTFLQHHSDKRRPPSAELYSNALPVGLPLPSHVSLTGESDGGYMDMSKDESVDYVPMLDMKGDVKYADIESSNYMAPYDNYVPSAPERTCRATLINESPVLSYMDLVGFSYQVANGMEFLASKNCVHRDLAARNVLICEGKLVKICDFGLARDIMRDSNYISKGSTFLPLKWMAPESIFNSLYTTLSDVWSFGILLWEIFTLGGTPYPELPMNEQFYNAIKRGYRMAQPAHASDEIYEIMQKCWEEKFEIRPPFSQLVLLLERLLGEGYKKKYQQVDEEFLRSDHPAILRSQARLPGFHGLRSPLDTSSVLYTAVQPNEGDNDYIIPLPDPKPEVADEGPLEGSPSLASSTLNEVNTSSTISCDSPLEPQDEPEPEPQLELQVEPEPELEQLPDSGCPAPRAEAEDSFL
T1 sequence (P16234 550-1089 T674I): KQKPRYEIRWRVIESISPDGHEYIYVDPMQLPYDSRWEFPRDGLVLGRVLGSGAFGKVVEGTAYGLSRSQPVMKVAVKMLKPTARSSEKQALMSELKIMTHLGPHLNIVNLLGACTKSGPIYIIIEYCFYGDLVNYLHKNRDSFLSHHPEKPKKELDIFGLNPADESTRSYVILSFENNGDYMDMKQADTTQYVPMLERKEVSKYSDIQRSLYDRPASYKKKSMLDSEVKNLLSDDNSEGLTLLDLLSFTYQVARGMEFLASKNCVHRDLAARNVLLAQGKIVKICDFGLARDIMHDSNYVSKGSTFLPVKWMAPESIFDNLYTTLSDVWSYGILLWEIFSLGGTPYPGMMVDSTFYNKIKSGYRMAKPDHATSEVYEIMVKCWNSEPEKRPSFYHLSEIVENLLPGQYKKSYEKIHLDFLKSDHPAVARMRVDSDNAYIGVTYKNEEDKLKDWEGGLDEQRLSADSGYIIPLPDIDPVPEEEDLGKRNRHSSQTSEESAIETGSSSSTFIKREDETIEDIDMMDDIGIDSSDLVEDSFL

For the compound `Cc1cc(C(=O)Nc2cccc([C@H](C)Nc3cnc4cnn(C)c4n3)c2)ccc1CN1CCOCC1` [Compound 209, (S)-3-methyl-N-(3-(1-((1-methyl-1H-pyrazolo[3,4-b]pyrazin-6-yl)amino)ethyl)phenyl)-4-(morpholinomethyl) benzamide], the concentration for half-maximal inhibition (IC50) in experiment [1] and in experiment [2] was below 300 nM each time.
In the case of `CCn1cc2ncc(N[C@@H](C)c3cccc(NC(=O)c4cnc(C)s4)c3)nc2n1` [Compound 294, (S)-N-(3-(1-((2-ethyl-2H-pyrazolo[3,4-b]pyrazin-6-yl)amino)ethyl)phenyl)-2-methylthiazole-5-carboxamide], the IC50 in experiment [1] and in experiment [2] was 300 to 1000 nM throughout.
As to `CCn1cc2ncc(N[C@@H](C)c3cc(NC(=O)Cc4ccc(Cl)c(C)n4)ccc3C)nc2n1` [Compound 670, (S)-2-(5-chloro-6-methylpyridin-2-yl)-N-(3-(1-((2-ethyl-2H-pyrazolo[3,4-b]pyrazin-6-yl)amino)ethyl)-4-methylphenyl)acetamide], the IC50 in experiment [1] and in experiment [2] was below 300 nM in each case.
For the compound `Cc1cncc(C(=O)Nc2cccc([C@H](C)Nc3cnc4cnn(C)c4c3)c2)c1` [Compound 89, (S)-5-methyl-N-(3-(1-((1-methyl-1H-pyrazolo[4,3-b]pyridin-6-yl)amino)ethyl)phenyl)nicotinamide], the IC50 – broadly, the midpoint of a concentration-inhibition curve – is below 300 nM in experiment [1] and 300 to 1000 nM in experiment [2].
The like results for `C[C@H](Nc1cnc2cnn(C)c2n1)c1cccc(NC(=O)c2cnccc2F)c1` [Compound 131, (S)-4-fluoro-N-(3-(1-((1-methyl-1H-pyrazolo[3,4-b]pyrazin-6-yl)amino)ethyl)phenyl) nicotinamide] were, in that order, 300 to 1000 nM and at least 1000 nM.
As to `COc1ncc(C(=O)Nc2cccc([C@H](C)Nc3cnc4cnn(C)c4n3)c2)cc1C(F)(F)F` [Compound 247, (S)-6-methoxy-N-(3-(1-((1-methyl-1-pyrazolo[3,4-b]pyrazin-6-yl)amino)ethyl)phenyl)-5-(trifluoromethyl) nicotinamide], the IC50 in experiment [1] and in experiment [2] was below 300 nM in each case.
With `CCc1ccc(C(=O)Nc2cccc([C@H](C)Nc3cnc4cnn(C)c4n3)c2)cn1` [Compound 207, (S)-6-ethyl-N-(3-(1-((1-methyl-1H-pyrazolo[3,4-b]pyrazin-6-yl)amino)ethyl)phenyl) nicotinamide], the IC50 in experiment [1] and in experiment [2] was below 300 nM each time.
For `Cc1c[nH]c2ncc(N[C@@H](C)c3cccc(NC(=O)c4cnc(C(F)(F)F)s4)c3)nc12` [Compound 572, (S)-N-(3-(1-((7-methyl-5H-pyrrolo[2,3-b]pyrazin-2-yl)amino)ethyl)phenyl)-2-(trifluoromethyl)thiazole-5-carboxamide], the IC50 in experiment [1] is at least 1000 nM; in experiment [2], 300 to 1000 nM.
With `Cc1cc(C(=O)Nc2cccc([C@H](C)Nc3cnc4cnn(C)c4n3)c2)ccc1C(=O)OCCN1CCCC1` [Compound 268, 2-(pyrrolidin-1-yl)ethyl (S)-2-methyl-4-((3-(1-((1-methyl-1H-pyrazolo[3,4-b]pyrazin-6-yl)amino)ethyl)phenyl)carbamoyl) benzoate], the IC50 in experiment [1] and in experiment [2] was below 300 nM in each case.
Turning to `CCn1cc2ncc(N[C@@H](C)c3cccc(NC(=O)Cc4ccc5c(n4)CCCC5)c3)nc2n1` [Compound 723, (S)-N-(3-(1-((2-ethyl-2H-pyrazolo[3,4-b]pyrazin-6-yl)amino)ethyl)phenyl)-2-(5,6,7,8-tetrahydroquinolin-2-yl) acetamide], the IC50 in experiment [1] was below 300 nM; in experiment [2], at least 1000 nM.
The like results for `CCn1cc2ncc(N[C@@H](C)c3cc(NC(=O)c4cc(F)c(CN5CCOCC5)c(Cl)c4)ccc3C)nc2n1` [Compound 520, (S)-3-chloro-N-(3-(1-((2-ethyl-2H-pyrazolo[3,4-b]pyrazin-6-yl)amino)ethyl)-4-methylphenyl)-5-fluoro-4-(morpholinomethyl) benzamide] were, in that order, below 300 nM and below 300 nM.
Consider `COC(=O)c1ccc(C(=O)Nc2cccc([C@H](C)Nc3cnc4cnn(C)c4n3)c2)cc1C` [Compound 199, methyl (S)-2-methyl-4-((3-(1-((1-methyl-1H-pyrazolo[3,4-b]pyrazin-6-yl)amino)ethyl)phenyl)carbamoyl)benzoate], for which the 50% inhibitory concentration (IC50) in experiment [1] and in experiment [2] was below 300 nM each time.
In the case of `Cc1cc(C(=O)Nc2cccc([C@H](C)Nc3cnc4[nH]nc(C)c4n3)c2)cnc1C(F)(F)F` [Compound 538, (S)-5-methyl-N-(3-(1-((3-methyl-1H-pyrazolo[3,4-b]pyrazin-5-yl)amino)ethyl)phenyl)-6-(trifluoromethyl) nicotinamide], the IC50 in experiment [1] and in experiment [2] was below 300 nM each time.
In the case of `Cc1cc2ncc(N[C@@H](C)c3cccc(NC(=O)c4ccc(OC(F)F)nc4)c3)nc2s1` [Compound 608, (S)-6-(difluoromethoxy)-N-(3-(1-((6-methylthieno[2,3-b]pyrazin-3-yl)amino)ethyl)phenyl)nicotinamide], the IC50 in experiment [1] and in experiment [2] was below 300 nM each time.
Take `CCn1cc2ncc(N[C@@H](C)c3cc(NC(=O)c4cnc(N5CCCC5)c(C)c4)ccc3F)nc2n1` [Compound 336, (S)-N-(3-(1-((2-ethyl-2H-pyrazolo[3,4-b]pyrazin-6-yl)amino)ethyl)-4-fluorophenyl)-5-methyl-6-(pyrrolidin-1-yl) nicotinamide]: the IC50 in experiment [1] and in experiment [2] was below 300 nM in each case.
For `CCn1cc2ncc(N[C@@H](C)c3cccc(NC(=O)c4ccc5c(c4)OCO5)c3)nc2n1` [Compound 64, (S)-N-(3-(1-((2-ethyl-2H-pyrazolo[3,4-b]pyrazin-6-yl)amino)ethyl)phenyl) benzo[d][1,3]dioxole-5-carboxamide], the IC50 in experiment [1] was below 300 nM; in experiment [2], 300 to 1000 nM.
With `CCn1cc2ncc(N[C@@H](C)c3cccc(NC(=O)c4ccc(C(=O)N5CCN(C)CC5)c(C)c4)c3)nc2n1` [Compound 472, (S)-N-(3-(1-((2-ethyl-2H-pyrazolo[3,4-b]pyrazin-6-yl)amino)ethyl)phenyl)-3-methyl-4-(4-methylpiperazine-1-carbonyl)benzamide], the IC50 was below 300 nM in experiment [1] and 300 to 1000 nM in experiment [2].
`CCn1cc2ncc(N[C@@H](C)c3cccc(NC(=O)Cc4ccc(C5CCC5)cn4)c3)nc2n1` [Compound 711, (S)-2-(5-cyclobutylpyridin-2-yl)-N-(3-(1-((2-ethyl-2H-pyrazolo[3,4-b]pyrazin-6-yl)amino)ethyl)phenyl)acetamide]: the half-inhibitory concentration (IC50) is below 300 nM in experiment [1] and at least 1000 nM in experiment [2].
Taken in the same sequence, the figures for `CCn1cc2ncc(N[C@@H](C)c3cc(NC(=O)Cc4cccc(C)c4)ccc3F)nc2n1` [Compound 634, (S)-N-(3-(1-((2-ethyl-2H-pyrazolo[3,4-b]pyrazin-6-yl)amino)ethyl)-4-fluorophenyl)-2-(m-tolyl)acetamide] were below 300 nM and below 300 nM.
Take `CCOCc1cncc(C(=O)Nc2cccc([C@H](C)Nc3cnc4cnn(C)c4n3)c2)c1` [Compound 230, (S)-5-(ethoxymethyl)-N-(3-(1-((1-methyl-1H-pyrazolo[3,4-b]pyrazin-6-yl)amino)ethyl)phenyl)nicotinamide]: the IC50 in experiment [1] and in experiment [2] was below 300 nM throughout.
On to `C[C@H](Nc1cnc2cnn(C)c2n1)c1cccc(NC(=O)c2cccc(S(C)(=O)=O)c2)c1` [Compound 226, (S)-N-(3-(1-((1-methyl-1H-pyrazolo[3,4-b]pyrazin-6-yl)amino)ethyl)phenyl)-3-(methylsulfonyl)benzamide], for which the IC50 in experiment [1] and in experiment [2] was below 300 nM each time.
As for `CCn1cc2ncc(N[C@@H](C)c3cc(NC(=O)Cc4ccc(F)cc4)ccc3C)nc2n1` [Compound 701, (S)-N-(3-(1-((2-ethyl-2H-pyrazolo[3,4-b]pyrazin-6-yl)amino)ethyl)-4-methylphenyl)-2-(4-fluorophenyl)acetamide], the IC50 in experiment [1] and in experiment [2] was below 300 nM throughout.
With `Cc1cncc(C(=O)Nc2cccc([C@H](C)Nc3cnc4ccn(C)c4n3)c2)c1` [Compound 1, (S)-5-methyl-N-(3-(1-((5-methyl-5H-pyrrolo[2,3-b]pyrazin-3-yl)amino)ethyl)phenyl)nicotinamide], the IC50 in experiment [1] and in experiment [2] was below 300 nM each time.
Take `COc1cncc(C(=O)Nc2cccc([C@H](C)Nc3cnc4[nH]cc(C)c4n3)c2)c1` [Compound 555, (S)-5-methoxy-N-(3-(1-((7-methyl-5H-pyrrolo[2,3-b]pyrazin-2-yl)amino)ethyl)phenyl)nicotinamide]: the IC50 in experiment [1] and in experiment [2] was below 300 nM each time.
Regarding `CCn1cc2ncc(N[C@@H](C)c3cccc(NC(=O)Cc4ccccc4)c3)nc2n1` [Compound 633, (S)-N-(3-(1-((2-ethyl-2H-pyrazolo[3,4-b]pyrazin-6-yl)amino)ethyl)phenyl)-2-phenylacetamide], the IC50 is below 300 nM in experiment [1] and 300 to 1000 nM in experiment [2].
The like results for `C[C@H](Nc1cnc2cc(C3CC3)sc2n1)c1cc(NC(=O)c2ccc(C(F)(F)F)nc2)ccc1F` [Compound 616, (S)-N-(3-(1-((6-cyclopropylthieno[2,3-b]pyrazin-3-yl)amino)ethyl)-4-fluorophenyl)-6-(trifluoromethyl)nicotinamide] were, in that order, below 300 nM and below 300 nM.
For the compound `CCn1cc2ncc(N[C@@H](C)c3cccc(NC(=O)c4ccc(N5CCCC5)c(F)c4)c3)nc2n1` [Compound 441, (S)-N-(3-(1-((2-ethyl-2H-pyrazolo[3,4-b]pyrazin-6-yl)amino)ethyl)phenyl)-3-fluoro-4-(pyrrolidin-1-yl)benzamide], the IC50 in experiment [1] and in experiment [2] was below 300 nM throughout.
As to `CCn1cc2ncc(N[C@@H](C)c3cccc(NC(=O)c4ccc(CN5CCN(C6CC6)CC5)c(C)c4)c3)nc2n1` [Compound 462, (S)-4-((4-cyclopropylpiperazin-1-yl)methyl)-N-(3-(1-((2-ethyl-2H-pyrazolo[3,4-b]pyrazin-6-yl)amino)ethyl)phenyl)-3-methylbenzamide], the IC50 in experiment [1] and in experiment [2] was below 300 nM throughout.

The record behind these values is patent publication US20230102554A1 (GB002, INC., priority 2019, published 2023).
